Assay results from US12516082B2, “Metal-carbohydrate complex” (ARCZONE K.K., priority 2020, dated 2026).

Assays:
Format in all cases: cell-based, mouse
MIN6 [1] = test: Proportion of dead cells by propidium iodide, MIN6 at 4 DIV in culture
Protocol: (§1) A mouse pancreatic β-cell tumorigenic (insulinoma) cell line MIN6 (Miyazaki J. et al., Endocrinology 127:126-132, 1990) was used to perform the following experiment. Here, all experiments which include an experiment where the above-described compound B (hereinafter called LGG) is administered and an experiment where the above-described compound A (hereinafter called DGG) is administered and in which about 1,000 MIN6 cells were placed in 96 wells were carried out by taking care to avoid external disturbances as much as possible.
MIN6 cells derived from mouse pancreas are a heterogeneous cell population (Yamato, E. et al., PLOS One 8: e61211, 2013). Up to about 4 to 5 DIV after the start of culture, normal cells, that is, insulin-producing β-cells of pancreatic islets of Langerhans accounted for the majority. […]
Specifically, LGG and DGG were administered to MIN6 at 0 to 1,000 μm at 4 DIV in culture, and after the elapse of 90 minutes, the proportion of the number of dead cells evaluated using a dead cell marker propidium iodide (PI) was measured as a function of their concentrations. […] However, the vertical axis is a value (%) normalized by the fluorescence intensity of the total number of cells assuming that the number of dead cells at a concentration of 1,000 μm is the total number of cells in each well. […]

MIN6 [2] = test: Proportion of dead cells, MIN6 at long DIV (18 to 19 DIV) in culture; conditions: MIN6 at 19 DIV for LGG, 18 DIV for DGG; administered for 10 minutes; FIG. 6
Protocol: as §1
Specifically, LGG and DGG were administered to MIN6 at 0 to 1,000 μm at 4 DIV in culture, and after the elapse of 90 minutes, the proportion of the number of dead cells evaluated using a dead cell marker propidium iodide (PI) was measured as a function of their concentrations. […] However, the vertical axis is a value (%) normalized by the fluorescence intensity of the total number of cells assuming that the number of dead cells at a concentration of 1,000 μm is the total number of cells in each well. The broken line is an eye guide.
Furthermore, the same experiment as that of FIG. 2 was carried out for MIN6 at long DIV in culture. However, in either case, observations were carried out after DGG or LGG was administered for 10 minutes.

MIN6 [3] = test: Optical microscope observation of cell conditions, MIN6 at 5 DIV, with or without PHT
Protocol: as §1
Here, a further experiment was carried out to verify whether the LGG-induced cell death clearly shown in FIG. 2 was indeed caused by the intracellular uptake of LGG. Specifically, whether the cell death is inhibited was examined by administering LGG in the presence of phloretin (hereinafter called PHT).
PHT functions as an inhibitor on various membrane transport proteins such as water channel proteins or glucose transporter proteins (Ono K. et al., Cancers 12:850, 2020). […] That is, it is estimated that, when an L-glucose derivative is applied to MIN6 cells in the presence of PHT, incorporation of LGG into “cells into which the L-glucose derivative can be incorporate” which are partially present in a heterogeneous cell population is inhibited by the effect of inhibiting a non-transporter type transport mechanism by PHT. […]

MIN6 [4] = test: Calcein fluorescence intensity (activity of living cells), MIN6 at 5 DIV, with or without PHT; conditions: FIG. 5
Protocol: as §1
Furthermore, the effect of LGG on cells was quantitatively analyzed in the presence or absence of PHT. Specifically, similarly to the cases of FIG. 3 described above, the fluorescence intensity of calcein, which is a fluorescent marker representing activities of living cells, was evaluated for the case (A) where LGG was not administered to MIN6 (at 5 DIV) (control experiment), the case (B) where 100 μm LGG was administered thereto for 10 minutes (LGG), and the case (C) where 100 μm LGG was administered thereto for 10 minutes after 150 μm PHT was administered in advance. In FIG. 5, the error bars indicate standard errors SE, and the numerical values in parentheses indicate the number of ROIs analyzed. […]

CC[P+](CC)(CC)[Au-][S]C1OC(CO)C(O)C(O)C1O [LGG, (1-thio-β-L-glucopyranoside) (S-triethylphosphine) gold (I)]
safety against normal cells relative to DGG (MIN6 [1]; MIN6 at 4 DIV (mostly normal β-cells), from 50% effective doses): approximately 10 times
concentration above which cell death evaluated using PI becomes detectable (MIN6 [1]; MIN6 at 4 DIV, 90 minutes after administration, interpolation of FIG. 2): 10 μm
concentration dependence of the proportion of the number of dead cells (MIN6 [2]): almost matches the DGG concentration dependence
cell conditions under optical microscope (MIN6 [3]; 100 μm LGG for 10 minutes after 150 μm PHT in advance, FIG. 3C, 4f-4i): cells indicating deterioration of the cell conditions are hardly recognized
cell conditions under optical microscope (MIN6 [3]; 100 μm LGG for 10 minutes, no PHT, FIG. 3B, 4e): a part of cytoplasm in some cells protrudes outside the cells
fluorescence intensity of calcein (cell activity): decrease due to LGG in presence of PHT (MIN6 [4]; 100 μm LGG for 10 minutes after 150 μm PHT in advance): significantly inhibited by PHT
fluorescence intensity of calcein (cell activity) versus control (MIN6 [4]; 100 μm LGG for 10 minutes, no PHT): significantly reduced activities of MIN6 cells
